The values below come from patent publication US20170226150A1, “TRITERPENOID COMPOSITION OF ANTRODIA CINNAMOMEA, PREPARATION AND ANALYSIS METHOD THEREOF” (KAOHSIUNG MEDICAL UNIVERSITY, priority 2011, published 2017).

In brackets after ≈: the same amount, converted by molar mass.

In data set [1] the test system is Molt 4 human acute lymphoblastic leukemia cells. Kind of data set: Cytotoxicity test, MTT colorimetric method, Molt 4. It is filed as cell-based. Here is the method: (§1) The cytotoxicity test of the obtained major ergostane triterpenoid compounds (zhankuic acid A, zhankuic acid C, antcin C and antcin K) and their stereoisomeric pure compounds (compounds E1 to E6 and E9 to E10) were performed on three leukemia cell lines using MTT (3-(4,5-dimethylthiazol-2-yl)-2,5-diphenyltetrazolium bromide) colorimetric method, and the results were referred to Table 8.

Data set [2] has as its system HL 60 human promyelocytic leukemia cells. Kind of data set: Cytotoxicity test, MTT colorimetric method, HL 60. It is filed as cell-based. Here is the method:
as §1
In general terms: Tetrazolium dyes change colour on reduction, which living cells bring about.

The subject of data set [3] is CCRF-CEM human acute lymphoblastic leukemia cells. Nature of the data set: Cytotoxicity test, MTT colorimetric method, CCRF-CEM. It is filed as cell-based. The method, then: as §1
Data set [4] can be described thus: Solubility in solvents for optical rotation measurement. It is filed as physicochemical. Particulars: methanol or ethanol. Here is the method:
After determining the absolute configuration, we tried to measure the optical rotation aiming to complete the spectral profile for the isolated compounds. In a previous report, the mixture form of zhankuic acid A was dissolved in methanol to measure its optical rotation. […] The solubility of compounds E9 and E10 improved through using acetone-methanol mixture. Considering compounds solubility and the convenience of collecting physical and spectral data using single solvent, pyridine was used in optical rotation experiment. The optical rotation of compound E9 was [α]D^25+32.1 (c 0.70, pyridine), and that of compound E10 was [α]D^25+9.0 (c 0.84, pyridine).

Consider “3α,4β,7β-trihydroxy-4α-methylergosta-8,24(28)-dien-11-on-25S-26-oic acid [Compound E1]”, for which, in data set [1], the “IC50 (μg/ml) Molt 4” value was over 80 µg/mL. In data set [2], the “IC50 (μg/ml) HL 60” value is over 80 µg/mL. In addition, the “IC50 (μg/ml) CCRF-CEM” value in data set [3] is over 80 µg/mL.
As for `C=C(CC[C@@H](C)[C@H]1CC[C@H]2C3=C(C(=O)C[C@]12C)[C@@]1(C)CC[C@@H](O)[C@](C)(O)[C@@H]1C[C@@H]3O)[C@@H](C)C(=O)O` [Compound E2, 3α,4β,7β-trihydroxy-4α-methylergosta-8,24(28)-dien-11-on-25R-26-oic acid], in data set [1], the “IC50 (μg/ml) Molt 4” value was over 80 µg/mL. In addition, the “IC50 (μg/ml) HL 60” value in data set [2] was over 80 µg/mL. Further, in data set [3], the “IC50 (μg/ml) CCRF-CEM” value was over 80 µg/mL.
Take `C=C(CC[C@@H](C)[C@H]1CC[C@H]2C3=C(C(=O)C[C@]12C)[C@@]1(C)CCC(=O)[C@@H](C)C1C[C@@H]3O)[C@H](C)C(=O)O` (stereo partly drawn) [Compound E3, 7β-hydroxy-4α-methylergosta-8,24(28)-dien-3,11-dion-25S-26-oic acid]: in data set [1], the “IC50 (μg/ml) Molt 4” value amounted to 77.04 ± 2.78 µg/mL (≈ 164 µM). In addition, the “IC50 (μg/ml) HL 60” value in data set [2] is over 80 µg/mL. The “IC50 (μg/ml) CCRF-CEM” value in data set [3] amounted to 30.681 ± 5.30 µg/mL (≈ 65.2 µM).
The corresponding values for `C=C(CC[C@@H](C)[C@H]1CC[C@H]2C3=C(C(=O)C[C@]12C)[C@@]1(C)CCC(=O)[C@@H](C)C1C[C@@H]3O)[C@@H](C)C(=O)O` (stereo partly drawn) [Compound E4, 7β-hydroxy-4α-methylergosta-8,24(28)-dien-3,11-dion-25R-26-oic acid] are 54.28 ± 1.96 µg/mL (≈ 115 µM), over 80 µg/mL and 27.94 ± 6.44 µg/mL (≈ 59.4 µM).
`C=C(CC[C@@H](C)[C@H]1CC[C@H]2C3=C(C(=O)[C@H](O)[C@]12C)[C@@]1(C)CC[C@@H](O)[C@@H](C)C1CC3=O)[C@@H](C)C(=O)O` (stereo partly drawn) [Compound E5, 3α,12α-dihydroxy-4α-methylergosta-8,24(28)-dien-7,11-dion-25R-26-oic acid]: the “IC50 (μg/ml) Molt 4” value in data set [1] was over 80 µg/mL. For the same molecule, the “IC50 (μg/ml) HL 60” value in data set [2] was over 80 µg/mL. The “IC50 (μg/ml) CCRF-CEM” value in data set [3] was over 80 µg/mL.
Turning to `C=C(CC[C@@H](C)[C@H]1CC[C@H]2C3=C(C(=O)[C@H](O)[C@]12C)[C@@]1(C)CC[C@@H](O)[C@@H](C)C1CC3=O)[C@H](C)C(=O)O` (stereo partly drawn) [Compound E6, 3α,12α-dihydroxy-4α-methylergosta-8,24(28)-dien-7,11-dion-25S-26-oic acid], the “IC50 (μg/ml) Molt 4” value in data set [1] was over 80 µg/mL. Moreover, the “IC50 (μg/ml) HL 60” value in data set [2] is over 80 µg/mL. Besides, the “IC50 (μg/ml) CCRF-CEM” value in data set [3] is over 80 µg/mL.
Turning to `C=C(CC[C@@H](C)[C@H]1CC[C@H]2C3=C(C(=O)C[C@]12C)[C@@]1(C)CCC(=O)[C@@H](C)C1CC3=O)[C@H](C)C(=O)O` (stereo partly drawn) [Compound E9, 4α-methylergosta-8,24(28)-dien-3,7,11-trion-25S-26-oic acid], the “IC50 (μg/ml) Molt 4” value in data set [1] came to 42.16 ± 2.33 µg/mL (≈ 90 µM). Moreover, the “solubility in single solvent” value in data set [4] is listed as “not sufficient”. In addition, the “IC50 (μg/ml) HL 60” value in data set [2] was 54.67 ± 8.14 µg/mL (≈ 117 µM). Besides, the “IC50 (μg/ml) CCRF-CEM” value in data set [3] came to 21.99 ± 7.91 µg/mL (≈ 46.9 µM).
For `C=C(CC[C@@H](C)[C@H]1CC[C@H]2C3=C(C(=O)C[C@]12C)[C@@]1(C)CCC(=O)[C@@H](C)C1CC3=O)[C@@H](C)C(=O)O` (stereo partly drawn) [Compound E10, 4α-methylergosta-8,24(28)-dien-3,7,11-trion-25R-26-oic acid], in data set [1], the “IC50 (μg/ml) Molt 4” value stood at 16.44 ± 3.77 µg/mL (≈ 35.1 µM). Moreover, the “solubility in single solvent” value in data set [4] is “not sufficient”. Further, the “IC50 (μg/ml) HL 60” value in data set [2] was 23.32 ± 1.60 µg/mL (≈ 49.8 µM). Moreover, the “IC50 (μg/ml) CCRF-CEM” value in data set [3] worked out at 22.90 ± 7.60 µg/mL (≈ 48.9 µM).
`C=C(CC[C@@H](C)[C@H]1CC[C@H]2C3=C(C(=O)C[C@]12C)[C@@]1(C)CCC(=O)[C@@H](C)[C@@H]1CC3=O)C(C)C(=O)O` (some centres unmarked) [Zhankuic acid A, zhankuic acid A]: the “IC50 (μg/ml) Molt 4” value in data set [1] amounted to 53.23 ± 3.88 µg/mL (≈ 114 µM). Besides, the “IC50 (μg/ml) HL 60” value in data set [2] was found to be 69.98 ± 18.98 µg/mL (≈ 149 µM). Besides, the “IC50 (μg/ml) CCRF-CEM” value in data set [3] came to 47.04 ± 6.191 µg/mL (≈ 100 µM).
On to `C=C(CC[C@@H](C)[C@H]1CC[C@H]2C3=C(C(=O)[C@H](O)[C@]12C)[C@@]1(C)CC[C@@H](O)[C@@H](C)[C@@H]1CC3=O)C(C)C(=O)O` (some centres unmarked) [Zhankuic acid C, zhankuic acid C], for which the “IC50 (μg/ml) Molt 4” value in data set [1] is over 80 µg/mL. Further, in data set [2], the “IC50 (μg/ml) HL 60” value was over 80 µg/mL. Also, the “IC50 (μg/ml) CCRF-CEM” value in data set [3] was over 80 µg/mL.
Take antcin C: in data set [1], the “IC50 (μg/ml) Molt 4” value was found to be 55.02 ± 3.34 µg/mL. The “IC50 (μg/ml) HL 60” value in data set [2] was 47.02 ± 4.45 µg/mL. The “IC50 (μg/ml) CCRF-CEM” value in data set [3] is 28.82 ± 6.79 µg/mL.
The corresponding values for antcin K are over 80 µg/mL, over 80 µg/mL and over 80 µg/mL.
